From patent US9079913B2, “Spiro-oxindole MDM2 antagonists” (The Regents of the University of Michigan, priority 2009, dated 2015)
Where two headings read alike, the source gives them in different places.

What was measured:
[1] = In vitro microsomal stability, dog; type: in vitro ADME; settings: for Microsomal stability, % remaining: Dog microsomes
[2] = In vitro microsomal stability, rat; type: in vitro ADME; settings: for Microsomal stability, % remaining: Rat microsomes; for microsomal stability (in words) / % of compound remaining when incubated in rat liver microsomes with NADPH: rat liver microsomes
[3] = In vitro microsomal stability, human; type: in vitro ADME; settings: for Microsomal stability, % remaining: Human microsomes; for microsomal stability (in words) / % of compound remaining when incubated in human liver microsomes with NADPH: human liver microsomes
[4] = Microsomal stability study, negative control incubation; type: in vitro ADME
[5] = test system: Isogenic HCT-116 colon cancer cell lines; assay: cells; type: cell-based;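 note: cells grown in 96-well plates in McCoy's 5A medium with 10% FBS, exposed to compound for 4 days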
Protocol: Cells were seeded in 96-well flat bottom cell culture plates at a density of 2−3×10^3 cells/well with compounds and incubated for 4 days.

[6] = test system: cancer cell lines with wild-type p53 / mutated or deleted p53 (ATCC); assay: Cell growth assay (WST-8), other cancer cell lines; type: cell-based
SJSA-1 xenograft tumors = assay: In vivo efficacy, SJSA-1 xenograft model (tumor volume); set-up: species or system C.B-17 SCID mice; settings: PO 100 mg/kg; for % Tumor Growth Inhib. T/C Control 750 mm^3 D27: Exp. No. 1, SJSA-1 xenograft; for % Tumor Growth Inhib. T/C Control 750 mm^3 D24: Exp. No. 2, SJSA-1 xenograft
Protocol: SJSA-1 tumor cells were harvested with Trypsin (0.05%)-EDTA (0.53 mM) (GIBCO™, Invitrogen Corp.), growth medium added and cells placed on ice. A cell sample was mixed 1:1 with Trypan Blue (GIBCO™, Invitrogen Corp.) and counted on a hemocytometer to determine the number of live/dead cells. Cells were washed once with 1×PBS (GIBCO™, Invitrogen Corp.) and resuspended in PBS. For Matrigel injections, after washing in PBS, cells are resuspended in an ice cold mixture of 1:1 PBS and Matrigel (BD Biosciences, Invitrogen Corp.) for a final Matrigel protein concentration of 5 mg/ml. SJSA-1 tumors were inoculated into C.B-17 SCID mice at 5×10^6 cells in 0.1 ml with Matrigel. Cells were injected s.c. into the flank region of each mouse using a 27 gauge needle.
The size of tumors growing in the mice was measured in two dimensions using calipers. Tumor volume (mm^3)=(A×B2)/2 where A and B are the tumor length and width (in mm), respectively. During treatment, tumor volume and body weight was measured three times a week. […] Mice were kept for an additional 60 days for further observation of tumor growth and toxicity.
Mice with tumors within acceptable size range were randomized into treatment groups of 8 mice for experimental compounds and 10 mice for the Control group. Experimental compounds were given orally, once per day for 2-3 weeks.

[7] = target: recombinant human His-tagged MDM2 protein (residues 1-118) (Homo sapiens (Human), UniProt Q00987); assay: Fluorescence-polarization MDM2 binding assay; settings: for IC50: Table 19A, FP binding assay, read-out: MDM2 IC50;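 for all read-outs here: fluorescence polarization read after three hours of incubation in potassium phosphate buffer containing bovine gamma globulin and Triton X-100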
[8] = Pharmacokinetic studies in rats; type: in vivo, rat; settings: for oral bioavailability / oral pharmacokinetics in rats (in words): oral dosing
Protocol: Pharmacokinetic studies on MDM2 inhibitors were carried out in rat. For comparison, the MDM2 inhibitor, AT-219, was also studied.

[9] = Homo sapiens, HCT-116, read-out: HCT-116 (p53-/-) IC50, Table 19A, HCT-116 p53-/-, cell growth
[10] = Homo sapiens, HCT-116, read-out: HCT-116 (p53 wild-type) IC50, Table 19A, HCT-116 p53 wild-type, cell growth
[11] = Homo sapiens, LNCaP, Table 19A, LNCAP cells, p53 wild-type, cell growth, read-out: LNCAP (p53 wild-type) IC50
[12] = Homo sapiens, PC-3, Table 19A, PC-3 cells, deleted p53, cell growth, read-out: PC-3 (deleted p53) IC50
[13] = Homo sapiens, SJSA-1, Table 19A, SJSA-1 cells, p53 wild-type, cell growth, read-out: SJSA-1 (p53 wild-type) IC50
[14] = Homo sapiens, HCT-116, read-out: HCT-116 (p53-/-) IC50
[15] = Homo sapiens, HCT-116, read-out: HCT-116 (p53 wild-type) IC50
[16] = rat, IV, 5 mg/kg, plasma, parent compound
[17] = Homo sapiens, LNCaP, read-out: LNCAP (p53 wild-type) IC50
[18] = Homo sapiens, PC-3, read-out: PC-3 (deleted p53) IC50
[19] = Homo sapiens, SJSA-1, read-out: SJSA-1 (p53 wild-type) IC50

Sequence of recombinant human His-tagged MDM2 protein (residues 1-118) (Q00987 1-118): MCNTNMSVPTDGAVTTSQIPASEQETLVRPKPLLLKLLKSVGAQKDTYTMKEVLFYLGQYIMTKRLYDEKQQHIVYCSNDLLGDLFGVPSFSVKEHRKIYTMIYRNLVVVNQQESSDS

CC(C)(C)C[C@H]1N[C@@H](C(=O)NCC[C@H](O)CO)[C@H](c2ccc(F)c(Cl)c2)[C@@]12C(=O)Nc1cc(Cl)c(F)cc12 [MI-319, reference compound]
Microsomal stability, % remaining ([1]; 0 min): 100.00%
Microsomal stability, % remaining ([1]; 5 min): 108.25%
Microsomal stability, % remaining ([1]; 10 min): 69.29%
Microsomal stability, % remaining ([1]; 15 min): 57.20%
Microsomal stability, % remaining ([1]; 30 min): 41.84%
Microsomal stability, % remaining ([1]; 45 min): 29.39%
Microsomal stability, % remaining ([1]; 60 min): 27.06%
microsomal stability (in words) ([1]; dog microsomes): metabolized fairly rapidly
Microsomal stability, % remaining ([2]; 0 min): 100.00%
Microsomal stability, % remaining ([2]; 5 min): 64.80%
Microsomal stability, % remaining ([2]; 10 min): 41.96%
Microsomal stability, % remaining ([2]; 15 min): 30.71%
Microsomal stability, % remaining ([2]; 30 min): 23.11%
Microsomal stability, % remaining ([2]; 45 min): 23.01%
Microsomal stability, % remaining ([2]; 60 min): 24.01%
microsomal stability (in words) [2]: metabolized fairly rapidly
Microsomal stability, % remaining ([3]; 0 min): 100.00%
Microsomal stability, % remaining ([3]; 5 min): 82.09%
Microsomal stability, % remaining ([3]; 10 min): 60.88%
Microsomal stability, % remaining ([3]; 15 min): 43.86%
Microsomal stability, % remaining ([3]; 30 min): 24.79%
Microsomal stability, % remaining ([3]; 45 min): 10.66%
Microsomal stability, % remaining ([3]; 60 min): 16.31%
microsomal stability (in words) [3]: metabolized fairly rapidly
Microsomal stability, % remaining ([4]; 0 min): 100.00%
Microsomal stability, % remaining ([4]; 5 min): 95.37%
Microsomal stability, % remaining ([4]; 10 min): 90.75%
Microsomal stability, % remaining ([4]; 15 min): 96.26%
Microsomal stability, % remaining ([4]; 30 min): 86.12%
Microsomal stability, % remaining ([4]; 45 min): 91.41%
Microsomal stability, % remaining ([4]; 60 min): 85.90%

CC(C)(C)C[C@H]1N[C@@H](C(=O)NCCN2CCN(S(C)(=O)=O)CC2)[C@H](c2cccc(Cl)c2F)[C@@]12C(=O)Nc1cc(Cl)ccc12 [MI-519-49]
IC50 [5, 9]: 12.7 µM
IC50 [5, 10]: 0.84 µM
IC50 [6, 11]: 0.85 µM
IC50 [6, 12]: 8.1 µM
% Tumor Growth Inhib. T/C Control 750 mm^3 D27 (SJSA-1 xenograft tumors): 63.8%
IC50 [7]: < 1 µM

CC(C)(C)C[C@H]1N[C@@H](C(N)=O)[C@H](c2cccc(Cl)c2F)[C@@]12C(=O)Nc1cc(Cl)ccc12 [MI-519-50]
IC50 [5, 9]: 23.7 µM
IC50 [5, 10]: 0.9 ± 0.2 µM
IC50 [6, 11]: 1.3 ± 0.4 µM
IC50 [6, 12]: 16.9 ± 4.5 µM
IC50 [6, 13]: 1.7 ± 1.7 µM
% Tumor Growth Inhib. T/C Control 750 mm^3 D27 (SJSA-1 xenograft tumors): 41.1%
IC50 [7]: < 1 µM

CC(C)(C)C[C@H]1N[C@@H](C(=O)N[C@H]2CC[C@@H](O)C2)[C@H](c2cccc(Cl)c2F)[C@@]12C(=O)Nc1cc(Cl)ccc12 [MI-519-51]
IC50 [5, 14]: 13.4 ± 0.8 µM
IC50 [5, 15]: 0.6 ± 0.3 µM
CLz [8, 16]: 75 mL/min/kg
Vd ([8]; rat, plasma, iv, 5 mg/kg, rat, IV, 5 mg/kg, plasma, parent compound, read-out: Vz): 7.5 L/kg
pharmacokinetic profile (in words) ([8]; rats, intravenous and oral routes of dosing): inferior overall PK parameters to MI-219
IC50 [6, 17]: 0.6 ± 0.2 µM
IC50 [6, 18]: 8.2 ± 2.5 µM
IC50 [6, 19]: 0.6 ± 0.2 µM
% Tumor Growth Inhib. T/C Control 750 mm^3 D27 (SJSA-1 xenograft tumors): 34.0%
microsomal stability (in words) [2]: inferior stability to MI-219
% of compound remaining when incubated in rat liver microsomes with NADPH ([2]; 0 min): 100.00%
% of compound remaining when incubated in rat liver microsomes with NADPH ([2]; 5 min): 12.77%
% of compound remaining when incubated in rat liver microsomes with NADPH ([2]; 10 min): 2.84%
% of compound remaining when incubated in rat liver microsomes with NADPH ([2]; 15 min): 0.83%
% of compound remaining when incubated in rat liver microsomes with NADPH ([2]; 30 min): 0.00%
% of compound remaining when incubated in rat liver microsomes with NADPH ([2]; 45 min): 0.00%
% of compound remaining when incubated in rat liver microsomes with NADPH ([2]; 60 min): 0.00%
half-life ([2]; rat, liver microsomes, rat liver microsomes with NADPH): 2.18 min
microsomal stability (in words) [3]: inferior stability to MI-219
% of compound remaining when incubated in human liver microsomes with NADPH ([3]; 0 min): 100.00%
% of compound remaining when incubated in human liver microsomes with NADPH ([3]; 5 min): 36.05%
% of compound remaining when incubated in human liver microsomes with NADPH ([3]; 10 min): 9.88%
% of compound remaining when incubated in human liver microsomes with NADPH ([3]; 15 min): 3.95%
% of compound remaining when incubated in human liver microsomes with NADPH ([3]; 30 min): 0.00%
% of compound remaining when incubated in human liver microsomes with NADPH ([3]; 45 min): 0.00%
% of compound remaining when incubated in human liver microsomes with NADPH ([3]; 60 min): 0.00%
half-life ([3]; human, liver microsomes, human liver microsomes with NADPH): 3.15 min

CC(C)(C)C[C@H]1N[C@@H](C(=O)NCC(C)(C)O)[C@H](c2cccc(Cl)c2F)[C@@]12C(=O)Nc1cc(Cl)ccc12 [MI-519-62]
IC50 [5, 14]: > 10 µM
IC50 [5, 15]: < 3 µM
IC50 [6, 17]: < 3 µM
IC50 [6, 18]: > 10 µM
IC50 [6, 19]: < 3 µM
% Tumor Growth Inhib. T/C Control 750 mm^3 D24 (SJSA-1 xenograft tumors): 59.5%

CC(C)(C)C[C@H]1N[C@@H](C(=O)NC2CCC(NS(C)(=O)=O)CC2)[C@H](c2cccc(Cl)c2F)[C@@]12C(=O)Nc1cc(Cl)ccc12 (some centres unmarked) [MI-772]
IC50 ([5]; read-out: HCT-116 (p53-/-) IC50, Table 19A, HCT-116 p53-/-, cell growth): > 5 µM
IC50 ([5]; read-out: HCT-116 (p53 wild-type) IC50, Table 19A, HCT-116 p53 wild-type, cell growth): < 1 µM
oral bioavailability / oral pharmacokinetics in rats (in words) ([8]; rats): modest oral bioavailability
CLz [8, 16]: 16.7 mL/min/kg
Vz [8, 16]: 10.9 L/kg
half-life in rats (in words) ([8]; rats, intravenous and oral): long plasma half-life
relative potency vs epimer, binding and cellular studies (in words) [6]: several times more potent than MI-771
IC50 ([6]; Table 19A, LNCAP cells, p53 wild-type, cell growth, read-out: LNCAP (p53 wild-type) IC50): < 1 µM
IC50 ([6]; Table 19A, PC-3 cells, deleted p53, cell growth, read-out: PC-3 (deleted p53) IC50): > 5 µM
IC50 ([6]; Table 19A, SJSA-1 cells, p53 wild-type, cell growth, read-out: SJSA-1 (p53 wild-type) IC50): < 1 µM
cell growth inhibition (in words) ([6]; cancer cell lines with wild-type p53): effectively inhibit cell growth
% Tumor Growth Inhib. T/C Control 750 mm^3 D24 (SJSA-1 xenograft tumors): 71.1%
IC50 [7]: < 1 µM
binding to MDM2 (in words) ([7]; human MDM2 protein): high affinities
microsomal stability (in words) [2]: very stable
t1/2 ([2]; rat liver microsomes with NADPH): >60 min
% of compound remaining when incubated in rat liver microsomes with NADPH ([2]; 0 min): 100.00%
% of compound remaining when incubated in rat liver microsomes with NADPH ([2]; 5 min): 93.46%
% of compound remaining when incubated in rat liver microsomes with NADPH ([2]; 10 min): 91.15%
% of compound remaining when incubated in rat liver microsomes with NADPH ([2]; 15 min): 89.04%
% of compound remaining when incubated in rat liver microsomes with NADPH ([2]; 30 min): 88.27%
% of compound remaining when incubated in rat liver microsomes with NADPH ([2]; 45 min): 78.65%
% of compound remaining when incubated in rat liver microsomes with NADPH ([2]; 60 min): 75.96%
microsomal stability (in words) [3]: very stable
t1/2 ([3]; human liver microsomes with NADPH): >60 min
% of compound remaining when incubated in human liver microsomes with NADPH ([3]; 0 min): 100.00%
% of compound remaining when incubated in human liver microsomes with NADPH ([3]; 5 min): 95.37%
% of compound remaining when incubated in human liver microsomes with NADPH ([3]; 10 min): 86.87%
% of compound remaining when incubated in human liver microsomes with NADPH ([3]; 15 min): 82.24%
% of compound remaining when incubated in human liver microsomes with NADPH ([3]; 30 min): 77.91%
% of compound remaining when incubated in human liver microsomes with NADPH ([3]; 45 min): 63.28%
% of compound remaining when incubated in human liver microsomes with NADPH ([3]; 60 min): 56.87%

C[C@H](N)C(=O)OC1CCC(NC(=O)[C@@H]2N[C@H](CC(C)(C)C)[C@]3(C(=O)Nc4cc(Cl)ccc43)[C@H]2c2cccc(Cl)c2F)CC1 (some centres unmarked) [MI-774]
IC50 [5, 9]: 5.6 µM
IC50 [5, 10]: 0.3 ± 0.1 µM
oral bioavailability / oral pharmacokinetics in rats (in words) ([8]; rats): good oral bioavailability
IC50 [6, 11]: 0.3 µM
IC50 [6, 13]: 0.3 ± 0.1 µM
% Tumor Growth Inhib. T/C Control 750 mm^3 D24 (SJSA-1 xenograft tumors): 21.4%
IC50 [7]: < 0.1 µM

CC(C)(C)C[C@H]1N[C@@H](C(=O)NC2CCN(S(C)(=O)=O)CC2)[C@H](c2cccc(Cl)c2F)[C@@]12C(=O)Nc1cc(Cl)ccc12 [MI-779]
IC50 [5, 9]: 13.6 µM
IC50 [5, 10]: 2.5 µM
IC50 [6, 11]: 1.3 µM
IC50 [6, 12]: 11.6 µM
IC50 [6, 13]: 1 µM
% Tumor Growth Inhib. T/C Control 750 mm^3 D24 (SJSA-1 xenograft tumors): 66.1%
IC50 [7]: < 0.1 µM

CCNC(=O)N1CCC(NC(=O)[C@@H]2N[C@H](CC(C)(C)C)[C@]3(C(=O)Nc4cc(Cl)ccc43)[C@H]2c2cccc(Cl)c2F)CC1 [MI-781]
IC50 [5, 9]: 10.1 µM
IC50 [5, 10]: 0.4 µM
IC50 [6, 13]: 0.7 µM
% Tumor Growth Inhib. T/C Control 750 mm^3 D24 (SJSA-1 xenograft tumors): 75.5%
IC50 [7]: < 0.1 µM
